# Values of other authors as cited in US20120087859A1, “NANOCARRIER HAVING ENHANCED SKIN PERMEABILITY, CELLULAR UPTAKE AND TUMOUR DELIVERY PROPERTIES” (GWANGJU INSTITUTE OF SCIENCE AND TECHNOLOGY, priority 2010, published 2012).
# Test system: NIH/3T3 fibroblasts
# Conditions: cultured NIH/3T3 fibroblasts in vitro
compound,measurement,value
"CC(C)(O)C(=O)c1ccc(OCCO)cc1 [Irgacure 2959, 2-hydroxy-1-[4-(2-hydroxyethoxy)phenyl]-2-methyl-1-propanone]",cytotoxicity,almost non-cytotoxic
